Here are results for 2 compounds from US10112954B2, “Bicyclic heteroaryl derivatives having inhibitory activity for protein kinase” (HANMI PHARM. CO., LTD., priority 2010, dated 2018).

Experiment [1] deals with T1, FGFR1 (Homo sapiens, UniProt P11362).
T1 construct: purchased Upstate Company
Put plainly: Inhibition of FGFR1 kinase (fluorescence polarization kinase assay). The class given is biochemical. The note with it: Table 2, class symbols; read-out: FGFR1 IC50. The protocol:
(§1) Inhibition activities of kinases of the inventive compounds (test compounds) prepared in the Examples were assessed and represented as IC50 values.
(§2) Kinases used in Test Examples 1 to 3 were purchased from Upstate Company.
(§3) 100 mM HEPES (pH 7.4), 25 mM MgCl2, 10 mM MnCl2 and 250 μM Na3VO4 were mixed to prepare a kinase buffer. Each of kinases to be measured was diluted to a concentration of 25˜300 ng per one reaction according to its activity with the kinase buffer. Also, each of the test compounds was serially diluted to a concentration starting from 100 nM up to 0.1 nM with the kinase buffer. 10 μl of the serially diluted solution of each of the test compounds and 10 μl of the diluted kinase were added to each well of a 96-well microplate, and the plate was incubated at room temperature for 10 mins. 10 μl of a substrate and 10 μl of ATP were successively added thereto to initiate a kinase reaction, and the resulting mixture was incubated at room temperature for 1 hour. The ATP was used in a form of a solution diluted to a concentration determined according to a kinase's Km value with distilled water. 10˜100 ng/mL poly(Glu, Tyr) 4:1 (Sigma) was used as the substrate. 10 μl of 6 mM EDTA was added to each well and stirred for 5 mins to terminate the kinase reaction. For a measurement of phosphorylation degree, 50 μl of a solution containing anti-phosphotyrosine antibody and fluorescein-labeled phosphopeptide was added to the reaction mixture, followed by incubating for 30 mins. The FP (fluorescence polarization) value of each well was determined with a Victor™ D fluorescence meter (Perkin Elmer Lifesciences).
(§4) IC50, the concentration at which 50% inhibition occurs, was evaluated based on the difference between the final concentration of the test cells and the initial concentration of the cells incubated in a well not-treated with the test compound which was regarded as 100%. IC50 values of the test compounds on the FGFR kinase were shown in Table 2, and those of the test compound obtained in Example 177 on various kinases, in Table 3.

For experiment [2], the target named is T2, FGFR3 (Homo sapiens, UniProt P22607).
T2 construct: purchased Upstate Company
In words: Inhibition of FGFR3 kinase (fluorescence polarization kinase assay). The note with it: Table 2, class symbols; read-out: FGFR3 IC50. The experiment is classed as biochemical. The procedure: as §1, §2, §3, §4

T2 sequence (P22607 23-806, species assumed): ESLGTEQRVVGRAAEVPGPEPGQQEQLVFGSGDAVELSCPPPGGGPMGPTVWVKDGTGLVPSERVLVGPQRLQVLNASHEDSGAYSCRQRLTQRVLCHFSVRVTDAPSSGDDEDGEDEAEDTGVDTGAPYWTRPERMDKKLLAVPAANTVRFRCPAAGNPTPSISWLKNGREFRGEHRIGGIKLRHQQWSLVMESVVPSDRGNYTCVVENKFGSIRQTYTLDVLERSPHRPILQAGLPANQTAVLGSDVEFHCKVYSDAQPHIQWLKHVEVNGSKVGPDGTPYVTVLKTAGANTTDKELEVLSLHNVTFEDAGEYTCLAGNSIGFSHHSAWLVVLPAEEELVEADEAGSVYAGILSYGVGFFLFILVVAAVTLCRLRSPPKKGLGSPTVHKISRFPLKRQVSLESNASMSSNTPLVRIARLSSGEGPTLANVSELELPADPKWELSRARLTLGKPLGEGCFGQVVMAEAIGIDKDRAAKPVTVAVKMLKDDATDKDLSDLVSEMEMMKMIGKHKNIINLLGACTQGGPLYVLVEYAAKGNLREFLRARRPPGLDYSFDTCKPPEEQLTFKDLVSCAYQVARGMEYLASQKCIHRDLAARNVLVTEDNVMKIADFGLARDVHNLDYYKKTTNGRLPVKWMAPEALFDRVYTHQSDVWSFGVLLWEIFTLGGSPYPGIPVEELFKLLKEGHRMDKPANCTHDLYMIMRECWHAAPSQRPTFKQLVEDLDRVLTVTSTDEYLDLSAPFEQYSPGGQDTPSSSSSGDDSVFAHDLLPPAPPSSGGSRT
T1 sequence (P11362 22-822, species assumed): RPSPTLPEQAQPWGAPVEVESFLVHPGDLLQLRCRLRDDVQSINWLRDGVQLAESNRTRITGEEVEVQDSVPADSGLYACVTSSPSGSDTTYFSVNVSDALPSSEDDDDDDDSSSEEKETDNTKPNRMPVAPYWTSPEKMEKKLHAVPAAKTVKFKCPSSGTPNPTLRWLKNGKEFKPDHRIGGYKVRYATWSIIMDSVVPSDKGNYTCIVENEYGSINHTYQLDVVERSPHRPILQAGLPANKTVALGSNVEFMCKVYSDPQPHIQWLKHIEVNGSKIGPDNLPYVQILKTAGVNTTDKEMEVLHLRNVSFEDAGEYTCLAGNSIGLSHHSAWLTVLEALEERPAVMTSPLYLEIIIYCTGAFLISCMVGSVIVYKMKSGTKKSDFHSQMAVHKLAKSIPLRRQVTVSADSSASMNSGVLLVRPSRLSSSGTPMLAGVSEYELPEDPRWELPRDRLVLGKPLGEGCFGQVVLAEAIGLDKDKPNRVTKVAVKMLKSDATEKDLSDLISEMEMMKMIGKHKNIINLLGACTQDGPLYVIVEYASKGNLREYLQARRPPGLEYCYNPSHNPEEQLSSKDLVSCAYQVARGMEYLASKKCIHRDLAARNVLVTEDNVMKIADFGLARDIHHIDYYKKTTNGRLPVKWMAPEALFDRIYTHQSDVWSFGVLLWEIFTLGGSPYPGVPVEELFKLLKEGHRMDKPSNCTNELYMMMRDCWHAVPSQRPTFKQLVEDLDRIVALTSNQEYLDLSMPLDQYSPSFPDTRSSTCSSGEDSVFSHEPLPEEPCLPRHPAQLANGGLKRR

Consider `COc1cc(OC)c(Cl)c(NC(=O)c2csc3c(Nc4nc5ccc(C)cc5s4)ncnc23)c1Cl` [Example 225, N-(2,6-dichloro-3,5-dimethoxyphenyl)-4-(6-methylbenzo[d]thiazol-2-ylamino)thieno[3,2-d]pyrimidine-7-carboxamide], for which the IC50 in experiment [1] and in experiment [2] was 500 to 1000 nM each time.
In the case of `COc1cc(OC)c(Cl)c(NC(=O)c2csc3c(Nc4ccc5cn[nH]c5c4)ncnc23)c1Cl` [Example 229, 4-(1H-indazol-6-ylamino)-N-(2,6-dichloro-3,5-dimethoxyphenyl) thieno[3,2-d]pyrimidine-7-carboxamide], the IC50 in experiment [1] fell in the range of 1 to 100 nM; in experiment [2], 500 to 1000 nM.
